Data taken from patent US6737383B1, “Herbicidal oxadiazolidines” (priority 1999, dated 2004).

What was measured:
[1] = tested on: smallflower flatsedge; assay: Test B flood test smallflower flatsedge; format: in vivo, Cyperus difformis
Outline: (§1)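 Read-out is a visual response score from 0 (no effect) to 10 (complete control), assigned by comparison with untreated controls. Treatment was applied at the 2-leaf stage, and plants stayed in the greenhouse for twelve to sixteen days before scoring.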

[2] = tested on: giant foxtail; assay: Test B pre/postemergence giant foxtail; format: in vivo, Setaria faberii
Outline: (§2)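 Response is a visual 0-to-10 score relative to untreated plants, where 0 means no effect and 10 means complete control, taken twelve to sixteen days after application. Treatments went onto soil at planting and onto foliage of 1- to 4-leaf plants, using a surfactant-containing non-phytotoxic solvent.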

[3] = tested on: bamyardgrass; assay: Test B flood test barnyardgrass; format: in vivo, Echinochloa crus-galli
Outline: as §1

[4] = tested on: rape; assay: Test B pre/postemergence rape; format: in vivo, Brassica napus
Outline: as §2

[5] = tested on: wild oat; assay: Test B pre/postemergence wild oat; format: in vivo, Avena fatua
Outline: as §2

[6] = tested on: morningglory; assay: Test B pre/postemergence morningglory; format: in vivo, Ipomoea hederacea
Outline: as §2

[7] = tested on: soybean; assay: Test B pre/postemergence soybean; format: in vivo, Glycine max
Outline: as §2

[8] = tested on: blackgrass; assay: Test B pre/postemergence blackgrass; format: in vivo, Alopecurus myosuroides
Outline: as §2

[9] = tested on: pigweed; assay: Test B pre/postemergence pigweed; format: in vivo, Amaranthus retroflexus
Outline: as §2

[10] = tested on: cocklebur; assay: Test B pre/postemergence cocklebur; format: in vivo, Xanthium strumarium
Outline: as §2

[11] = tested on: purple nutsedge; assay: Test B pre/postemergence purple nutsedge; format: in vivo, Cyperus rotundus
Outline: as §2

[12] = tested on: velvetleaf; assay: Test B pre/postemergence velvetleaf; format: in vivo, Abutilon theophrasti
Outline: as §2

[13] = tested on: duck salad; assay: Test B flood test duck salad; format: in vivo, Heteranthera limosa
Outline: as §1

[14] = tested on: rice; assay: Test B flood test rice; format: in vivo, Oryza sativa
Outline: as §1

[15] = tested on: sugar beet; assay: Test B pre/postemergence sugar beet; format: in vivo, Beta vulgaris
Outline: as §2

[16] = tested on: wheat; assay: Test B pre/postemergence wheat; format: in vivo, Triticum aestivum
Outline: as §2

[17] = Rate 62 g/ha, headed Pre-emergence (flood test species), scale 0 to 10 (0 no effect, 10 complete control)
[18] = Rate 125 g/ha, Pre-emergence, flood test species, scale 0 to 10 where 0 is no effect and 10 is complete control
[19] = Rate 250 g/ha, Pre-emergence, flood-test species, scale 0 to 10, 0 is no effect, 10 is complete control
[20] = Rate 500 g/ha, Pre-emergence, flood test species, scale 0 to 10 (0 no effect, 10 complete control)
[21] = Preemergence, Rate 62 g/ha, scale of 0 to 10 where 0 is no effect and 10 is complete control
[22] = Preemergence, Rate 250 g/ha, scale of 0 to 10 where 0 is no effect and 10 is complete control
[23] = Preemergence, Rate 500 g/ha, scale of 0 to 10 where 0 is no effect and 10 is complete control
[24] = Rate 62 g/ha, Postemergence, scale of 0 to 10 where 0 is no effect and 10 is complete control
[25] = Rate 125 g/ha, Postemergence, scale 0 to 10
[26] = Rate 125 g/ha, Preemergence, scale of 0 to 10 where 0 is no effect and 10 is complete control
[27] = Rate 500 g/ha, Postemergence, scale 0 to 10, 0 no effect, 10 complete control

For `Cc1nc(C)c(Cn2c(=O)on(C(=O)N(c3ccc(F)cc3F)C(C)C)c2=O)s1` [Compound 233], the “S. Flatsedge plant response rating” value [1, 17] was 0, the “S. Flatsedge plant response rating” value [1, 18] was 0 and the “S. Flatsedge plant response rating” value [1, 19] was 0. The “S. Flatsedge plant response rating” value [1, 20] was 0, the “Giant foxtail plant response rating” value [2, 21] was 7 and the “Giant foxtail plant response rating” value [2, 22] was 9. For the same molecule, the “Plant response rating, Giant foxtail” value [2, 23] was 10, the “Giant foxtail plant response rating” value [2, 24] was 0 and the “Giant foxtail plant response rating” value [2, 25] was 0. The “Giant foxtail plant response rating” value [2, 26] was 7, the “Plant response rating (0 to 10; 0 is no effect, 10 is complete control), Giant foxtail” value ([2]; Rate 250 g/ha, Postemergence) was 3 and the “Giant foxtail plant response rating” value [2, 27] was 6. For the same molecule, the “Barnyardgrass plant response rating” value [3, 17] was 0, the “Barnyardgrass plant response rating” value [3, 18] was 0 and the “Barnyardgrass plant response rating” value [3, 19] was 0. For the same molecule, the “Barnyardgrass plant response rating” value [3, 20] was 0, the “Rape plant response rating” value [4, 21] was 0 and the “Rape plant response rating” value [4, 22] was 0. The “Plant response rating, Rape” value [4, 23] was 3, the “Rape plant response rating” value [4, 24] was 2 and the “Rape plant response rating” value [4, 25] was 2. The “Rape plant response rating” value [4, 26] was 0, the “Plant response rating (0 to 10; 0 is no effect, 10 is complete control), Rape” value ([4]; Rate 250 g/ha, Postemergence) was 2 and the “Rape plant response rating” value [4, 27] was 3. For the same molecule, the “Wild oats plant response rating” value [5, 21] was 0, the “Wild oats plant response rating” value [5, 22] was 2 and the “Plant response rating, Wild oats” value [5, 23] was 6. For the same molecule, the “Wild oats plant response rating” value [5, 24] was 0, the “Wild oats plant response rating” value [5, 25] was 0 and the “Wild oats plant response rating” value [5, 26] was 1. For the same molecule, the “Plant response rating (0 to 10; 0 is no effect, 10 is complete control), Wild oats” value ([5]; Rate 250 g/ha, Postemergence) was 2, the “Wild oats plant response rating” value [5, 27] was 2 and the “Morningglory plant response rating” value [6, 21] was 0. For the same molecule, the “Morningglory plant response rating” value [6, 22] was 0, the “Plant response rating, Morningglory” value [6, 23] was 2 and the “Morningglory plant response rating” value [6, 24] was 3. The “Morningglory plant response rating” value [6, 25] was 3, the “Morningglory plant response rating” value [6, 26] was 0 and the “Plant response rating (0 to 10; 0 is no effect, 10 is complete control), Morningglory” value ([6]; Rate 250 g/ha, Postemergence) was 3. For the same molecule, the “Morningglory plant response rating” value [6, 27] was 8, the “Soybean plant response rating” value [7, 21] was 0 and the “Soybean plant response rating” value [7, 22] was 0. The “Plant response rating, Soybean” value [7, 23] was 0, the “Soybean plant response rating” value [7, 24] was 3 and the “Soybean plant response rating” value [7, 25] was 3. For the same molecule, the “Soybean plant response rating” value [7, 26] was 0, the “Plant response rating (0 to 10; 0 is no effect, 10 is complete control), Soybean” value ([7]; Rate 250 g/ha, Postemergence) was 3 and the “Soybean plant response rating” value [7, 27] was 5. For the same molecule, the “Blackgrass plant response rating” value [8, 21] was 2, the “Blackgrass plant response rating” value [8, 22] was 8 and the “Plant response rating, Blackgrass” value [8, 23] was 9. For the same molecule, the “Blackgrass plant response rating” value [8, 24] was 0, the “Blackgrass plant response rating” value [8, 25] was 0 and the “Blackgrass plant response rating” value [8, 26] was 2. For the same molecule, the “Plant response rating (0 to 10; 0 is no effect, 10 is complete control), Blackgrass” value ([8]; Rate 250 g/ha, Postemergence) was 2, the “Blackgrass plant response rating” value [8, 27] was 5 and the “Redroot pigweed plant response rating” value [9, 21] was 3. The “Redroot pigweed plant response rating” value [9, 22] was 7, the “Plant response rating, Redroot pigweed” value [9, 23] was 8 and the “Redroot pigweed plant response rating” value [9, 24] was 0. For the same molecule, the “Redroot pigweed plant response rating” value [9, 25] was 0, the “Redroot pigweed plant response rating” value [9, 26] was 6 and the “Plant response rating (0 to 10; 0 is no effect, 10 is complete control), Redroot pigweed” value ([9]; Rate 250 g/ha, Postemergence) was 2. The “Redroot pigweed plant response rating” value [9, 27] was 4, the “Cocklebur plant response rating” value [10, 21] was 0 and the “Cocklebur plant response rating” value [10, 22] was 0. For the same molecule, the “Plant response rating, Cocklebur” value [10, 23] was 0, the “Cocklebur plant response rating” value [10, 24] was 0 and the “Cocklebur plant response rating” value [10, 25] was 2. The “Cocklebur plant response rating” value [10, 26] was 0, the “Plant response rating (0 to 10; 0 is no effect, 10 is complete control), Cocklebur” value ([10]; Rate 250 g/ha, Postemergence) was 2 and the “Cocklebur plant response rating” value [10, 27] was 2. The “Nutsedge plant response rating” value [11, 21] was 0, the “Nutsedge plant response rating” value [11, 22] was 0 and the “Nutsedge plant response rating” value [11, 24] was 0. The “Nutsedge plant response rating” value [11, 25] was 0, the “Plant response rating (0 to 10; 0 is no effect, 10 is complete control), Nutsedge” value ([11]; Rate 250 g/ha, Postemergence) was 0 and the “Nutsedge plant response rating” value [11, 27] was 0. The “Velvetleaf plant response rating” value [12, 21] was 0, the “Velvetleaf plant response rating” value [12, 22] was 2 and the “Plant response rating, Velvetleaf” value [12, 23] was 7. For the same molecule, the “Velvetleaf plant response rating” value [12, 24] was 2, the “Velvetleaf plant response rating” value [12, 25] was 2 and the “Velvetleaf plant response rating” value [12, 26] was 0. The “Plant response rating (0 to 10; 0 is no effect, 10 is complete control), Velvetleaf” value ([12]; Rate 250 g/ha, Postemergence) was 3, the “Velvetleaf plant response rating” value [12, 27] was 3 and the “Ducksalad plant response rating” value [13, 17] was 0. For the same molecule, the “Ducksalad plant response rating” value [13, 18] was 0, the “Ducksalad plant response rating” value [13, 19] was 0 and the “Ducksalad plant response rating” value [13, 20] was 0. The “Rice plant response rating” value [14, 17] was 0, the “Rice plant response rating” value [14, 18] was 0 and the “Rice plant response rating” value [14, 19] was 0. For the same molecule, the “Rice plant response rating” value [14, 20] was 0, the “Sugarbeets plant response rating” value [15, 21] was 0 and the “Sugarbeets plant response rating” value [15, 22] was 4. For the same molecule, the “Plant response rating, Sugarbeets” value [15, 23] was 8, the “Sugarbeets plant response rating” value [15, 24] was 0 and the “Sugarbeets plant response rating” value [15, 25] was 0. For the same molecule, the “Sugarbeets plant response rating” value [15, 26] was 0, the “Plant response rating (0 to 10; 0 is no effect, 10 is complete control), Sugarbeets” value ([15]; Rate 250 g/ha, Postemergence) was 0 and the “Sugarbeets plant response rating” value [15, 27] was 4. The “Wheat plant response rating” value [16, 21] was 0, the “Wheat plant response rating” value [16, 22] was 0 and the “Plant response rating, Wheat” value [16, 23] was 0. For the same molecule, the “Wheat plant response rating” value [16, 24] was 0, the “Wheat plant response rating” value [16, 25] was 0 and the “Wheat plant response rating” value [16, 26] was 0. For the same molecule, the “Plant response rating (0 to 10; 0 is no effect, 10 is complete control), Wheat” value ([16]; Rate 250 g/ha, Postemergence) was 0 and the “Wheat plant response rating” value [16, 27] was 0.
